What was measured:
[1] = target: HCV NS3/4A protease genotype 1b mutant A156T (Hepatitis C virus genotype 1b, UniProt Q9WMX2, A1182T); assay: biochemical
[2] = target: Thrombin (Homo sapiens, UniProt P00734); assay: Effect on human protease Thrombin; format: biochemical
[3] = tested on: HCV NS3/4A protease genotype 1b mutant A156T; assay: biochemical; conditions: A156T vs wild type
[4] = target: Plasmin (Homo sapiens, UniProt P00747); assay: Effect on human protease Plasmin; format: biochemical; conditions: read-out: Plasmin IC90
[5] = tested on: HCV Replicon in Huh7 cells; assay: Inhibition of HCV RNA replication, subgenomic HCV replicon system in Huh7 cells; format: cell-based, Hepatitis C virus
[6] = tested on: HCV NS3/4A protease genotype 1b mutant A156S; format: biochemical; conditions: A156S vs wild type
[7] = tested on: HCV NS3/4A protease genotype 1b mutant V170A; format: biochemical; conditions: V170A vs wild type
[8] = tested on: primary human PBM (peripheral blood mononuclear) cells; assay: Cytotoxicity in PBM cells; format: cell-based
[9] = tested on: Vero cells (African green monkey kidney epithelial cells); assay: Cytotoxicity in Vero cells; format: cell-based
[10] = tested on: CEM cells (a human-T-cell-derived cell line); assay: Cytotoxicity in CEM cells; format: cell-based
[11] = tested on: Huh7 cells; assay: Cytotoxicity in Huh7 cells
[12] = tested on: HCV NS3/4A protease genotype 1b mutant R155K; format: biochemical; conditions: R155K vs wild type
[13] = tested on: HCV NS3/4A protease genotype 1b mutant D168V; format: biochemical; conditions: D168V vs wild type

Plasmin, sequence (P00747 581-810 limits assumed): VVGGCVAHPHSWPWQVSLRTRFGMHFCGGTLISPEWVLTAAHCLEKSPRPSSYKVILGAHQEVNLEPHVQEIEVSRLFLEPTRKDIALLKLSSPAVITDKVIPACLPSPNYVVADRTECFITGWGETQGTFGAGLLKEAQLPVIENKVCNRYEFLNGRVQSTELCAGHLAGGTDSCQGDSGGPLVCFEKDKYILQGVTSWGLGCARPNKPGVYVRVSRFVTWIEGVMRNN
Plasmin, sequence (P00747 97-580 partner limits assumed): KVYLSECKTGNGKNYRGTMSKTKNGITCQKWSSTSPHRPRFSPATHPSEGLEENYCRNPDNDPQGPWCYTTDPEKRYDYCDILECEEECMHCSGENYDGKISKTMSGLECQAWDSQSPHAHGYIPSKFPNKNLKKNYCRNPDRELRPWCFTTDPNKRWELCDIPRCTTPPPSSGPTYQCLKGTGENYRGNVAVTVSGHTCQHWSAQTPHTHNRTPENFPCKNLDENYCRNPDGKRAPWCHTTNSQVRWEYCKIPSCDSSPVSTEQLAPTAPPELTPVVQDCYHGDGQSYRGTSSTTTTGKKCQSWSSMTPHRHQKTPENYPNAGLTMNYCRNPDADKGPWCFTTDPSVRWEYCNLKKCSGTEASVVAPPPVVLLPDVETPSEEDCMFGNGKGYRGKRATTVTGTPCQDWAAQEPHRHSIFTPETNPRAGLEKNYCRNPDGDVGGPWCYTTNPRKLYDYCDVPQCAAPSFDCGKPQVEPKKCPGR

Question: What does the source list for `CC(C)(C)NC(=O)N[C@H](C(=O)N1C[C@H]2[C@@H]([C@H]1C(=O)NC(CC1CCC1)C(=O)C(N)=O)C2(C)C)C(C)(C)C` (stereo partly drawn) [Compound 1, boceprevir]?
Answer: EC90 [1]: > 100 µM; Inhibition of thrombin, in words [2]: submicromolar inhibition

Question: Which EC90 [1] does the source give for `CCC[C@H](NC(=O)[C@@H]1[C@H]2CCC[C@H]2CN1C(=O)[C@@H](NC(=O)[C@@H](NC(=O)c1cnccn1)C1CCCCC1)C(C)(C)C)C(=O)C(=O)NC1CC1` [Compound 2, telaprevir] here?
Answer: > 100 µM

Question: What about the “Fold Increase (FI) of EC90” value [3] of the same compound?
Answer: > 130

Question: What about the IC90 [4] of the same compound?
Answer: 110 ± 32 µM

Question: `CCCC(NC(=O)C1N(C(=O)[C@@H](NC(=O)[C@@H](NC(=O)c2cnccn2)C2CCCCC2)C(C)(C)C)CC12Cc1ccccc1C2)C(=O)C(=O)NC1CC1` (stereo partly drawn) [Compound 37b] was tested. Which “Anti-HCV activity, in words” value [5] did it give?
Answer: complete loss of potency

Question: For `CCCC(NC(=O)C1CCN1C(=O)[C@@H](NC(=O)[C@@H](NC(=O)c1cnccn1)C1CCCCC1)C(C)(C)C)C(=O)C(=O)NC1CC1` (stereo partly drawn) [Compound 37d], which “Anti-HCV activity, in words” value [5] is on record?
Answer: inactive

Question: For `CCCC(NC(=O)C1N(C(=O)[C@@H](NC(=O)[C@@H](NC(=O)c2cnccn2)C2CCCCC2)C(C)(C)C)CC12CCCCC2)C(=O)C(=O)NC1CC1` (stereo partly drawn) [Compound 37h], which “Fold Increase (FI) of EC90” value [6] is on record?
Answer: > 10

Question: What about the EC90 [1] of the same compound?
Answer: > 100 µM

Question: What about the “Fold Increase (FI) of EC50” value [3] of the same compound?
Answer: > 130

Question: And the “Fold Increase (FI) of EC90” value [3]?
Answer: > 10

Question: What about the “Fold Increase (FI) of EC50” value [7] of the same compound?
Answer: > 1.2

Question: And the “Toxicity in PBM cells, in words” value [8]?
Answer: toxicity in the micromolar range

Question: And the “Toxicity in Vero cells, in words” value [9]?
Answer: toxicity in the micromolar range

Question: And the “Toxicity in CEM cells, in words” value [10]?
Answer: toxicity in the micromolar range

Question: With `CCCC(NC(=O)C1N(C(=O)[C@@H](NC(=O)NC2CCCCC2)C(C)(C)C)CC12Cc1ccccc1C2)C(=O)C(=O)NC1CC1` (stereo partly drawn) [Compound 41e] as the compound, how does the “Toxicity toward Huh7 cells, in words” value [11] read?
Answer: toxic

Question: For `CC(C)(C)[C@H](NC(=O)NC1CCCCC1)C(=O)N1CC2(Cc3ccccc3C2)C1C(=O)NC(CC1CCC1)C(=O)C(=O)NC1CC1` (stereo partly drawn) [Compound 41f], which “Toxicity toward Huh7 cells, in words” value [11] is on record?
Answer: toxic

Question: For `CC[C@@H]1C[C@]1(NC(=O)[C@@H]1C[C@@H]2CN1C(=O)[C@H](C(C)(C)C)NC(=O)OCC(C)(C)CCCCc1cccc3c1CN(C3)C(=O)O2)C(=O)NS(=O)(=O)C1CC1` [MK-7009, vaniprevir], which “Fold Increase (FI) of EC50” value [6] is on record?
Answer: < 0.16

Question: What about the “Fold Increase (FI) of EC50” value [12] of the same compound?
Answer: > 160

Question: And the “Fold Increase (FI) of EC90” value [12]?
Answer: > 77

Question: And the EC90 [1]?
Answer: > 1 µM

Question: And the “Fold Increase (FI) of EC90” value [3]?
Answer: > 77

Question: What about the “Fold Increase (FI) of EC50” value [13] of the same compound?
Answer: > 160

Question: And the “Fold Increase (FI) of EC90” value [13]?
Answer: > 77
